What was measured:
[1] = biological target: Tyrosine-protein kinase Lyn (Homo sapiens) (UniProt P07948); conditions: Compound concentration 1000.0 nM
[2] = biological target: Tyrosine-protein kinase receptor UFO (Homo sapiens) (UniProt P30530); conditions: Compound concentration 1000.0 nM
[3] = biological target: TGF-beta receptor type-1 (Homo sapiens) (UniProt P36897); conditions: Compound concentration 1000.0 nM
[4] = biological target: Cyclin-dependent kinase 19 (Homo sapiens) (UniProt Q9BWU1); conditions: Compound concentration 1000.0 nM
[5] = tested on: ALK tyrosine kinase receptor (Homo sapiens), Q9UM73 [L1196M]; conditions: Compound concentration 1000.0 nM
[6] = biological target: Mitogen-activated protein kinase kinase kinase 2 (Homo sapiens) (UniProt Q9Y2U5); conditions: Compound concentration 1000.0 nM
[7] = biological target: Serine/threonine-protein kinase PAK 1 (Homo sapiens) (UniProt Q13153); conditions: Compound concentration 1000.0 nM
[8] = biological target: Serine/threonine-protein kinase Nek4 (Homo sapiens) (UniProt P51957); conditions: Compound concentration 1000.0 nM
[9] = biological target: G protein-coupled receptor kinase 3 (Homo sapiens) (UniProt P35626); conditions: Compound concentration 1000.0 nM
Chain of G protein-coupled receptor kinase 3 (Homo sapiens) (P35626 whole entry): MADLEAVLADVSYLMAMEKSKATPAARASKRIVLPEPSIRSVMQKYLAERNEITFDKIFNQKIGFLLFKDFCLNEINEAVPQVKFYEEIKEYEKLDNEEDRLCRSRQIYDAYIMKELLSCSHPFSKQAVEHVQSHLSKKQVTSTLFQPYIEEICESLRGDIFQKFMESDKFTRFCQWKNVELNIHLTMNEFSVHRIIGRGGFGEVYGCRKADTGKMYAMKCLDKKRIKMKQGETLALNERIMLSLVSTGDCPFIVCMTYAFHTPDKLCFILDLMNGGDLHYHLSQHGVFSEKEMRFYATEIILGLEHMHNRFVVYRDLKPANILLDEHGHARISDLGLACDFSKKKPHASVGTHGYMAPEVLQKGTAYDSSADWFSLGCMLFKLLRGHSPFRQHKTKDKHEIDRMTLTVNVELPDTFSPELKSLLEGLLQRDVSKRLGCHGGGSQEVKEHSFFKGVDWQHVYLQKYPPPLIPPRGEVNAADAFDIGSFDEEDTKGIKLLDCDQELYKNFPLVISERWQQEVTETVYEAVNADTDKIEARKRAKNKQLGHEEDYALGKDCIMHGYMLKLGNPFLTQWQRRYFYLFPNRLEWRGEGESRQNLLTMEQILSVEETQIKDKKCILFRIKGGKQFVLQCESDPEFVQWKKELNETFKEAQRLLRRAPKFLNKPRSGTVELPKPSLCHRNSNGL

[10] = biological target: Cyclin-dependent kinase 11B (Homo sapiens) (UniProt P21127); conditions: Compound concentration 1000.0 nM
[11] = biological target: Serine/threonine-protein kinase OSR1 (Homo sapiens) (UniProt O95747); conditions: Compound concentration 1000.0 nM
[12] = biological target: Cyclin-dependent kinase 13 (Homo sapiens) (UniProt Q14004); conditions: Compound concentration 1000.0 nM
Chain of Cyclin-dependent kinase 13 (Homo sapiens) (Q14004 whole entry, looked up): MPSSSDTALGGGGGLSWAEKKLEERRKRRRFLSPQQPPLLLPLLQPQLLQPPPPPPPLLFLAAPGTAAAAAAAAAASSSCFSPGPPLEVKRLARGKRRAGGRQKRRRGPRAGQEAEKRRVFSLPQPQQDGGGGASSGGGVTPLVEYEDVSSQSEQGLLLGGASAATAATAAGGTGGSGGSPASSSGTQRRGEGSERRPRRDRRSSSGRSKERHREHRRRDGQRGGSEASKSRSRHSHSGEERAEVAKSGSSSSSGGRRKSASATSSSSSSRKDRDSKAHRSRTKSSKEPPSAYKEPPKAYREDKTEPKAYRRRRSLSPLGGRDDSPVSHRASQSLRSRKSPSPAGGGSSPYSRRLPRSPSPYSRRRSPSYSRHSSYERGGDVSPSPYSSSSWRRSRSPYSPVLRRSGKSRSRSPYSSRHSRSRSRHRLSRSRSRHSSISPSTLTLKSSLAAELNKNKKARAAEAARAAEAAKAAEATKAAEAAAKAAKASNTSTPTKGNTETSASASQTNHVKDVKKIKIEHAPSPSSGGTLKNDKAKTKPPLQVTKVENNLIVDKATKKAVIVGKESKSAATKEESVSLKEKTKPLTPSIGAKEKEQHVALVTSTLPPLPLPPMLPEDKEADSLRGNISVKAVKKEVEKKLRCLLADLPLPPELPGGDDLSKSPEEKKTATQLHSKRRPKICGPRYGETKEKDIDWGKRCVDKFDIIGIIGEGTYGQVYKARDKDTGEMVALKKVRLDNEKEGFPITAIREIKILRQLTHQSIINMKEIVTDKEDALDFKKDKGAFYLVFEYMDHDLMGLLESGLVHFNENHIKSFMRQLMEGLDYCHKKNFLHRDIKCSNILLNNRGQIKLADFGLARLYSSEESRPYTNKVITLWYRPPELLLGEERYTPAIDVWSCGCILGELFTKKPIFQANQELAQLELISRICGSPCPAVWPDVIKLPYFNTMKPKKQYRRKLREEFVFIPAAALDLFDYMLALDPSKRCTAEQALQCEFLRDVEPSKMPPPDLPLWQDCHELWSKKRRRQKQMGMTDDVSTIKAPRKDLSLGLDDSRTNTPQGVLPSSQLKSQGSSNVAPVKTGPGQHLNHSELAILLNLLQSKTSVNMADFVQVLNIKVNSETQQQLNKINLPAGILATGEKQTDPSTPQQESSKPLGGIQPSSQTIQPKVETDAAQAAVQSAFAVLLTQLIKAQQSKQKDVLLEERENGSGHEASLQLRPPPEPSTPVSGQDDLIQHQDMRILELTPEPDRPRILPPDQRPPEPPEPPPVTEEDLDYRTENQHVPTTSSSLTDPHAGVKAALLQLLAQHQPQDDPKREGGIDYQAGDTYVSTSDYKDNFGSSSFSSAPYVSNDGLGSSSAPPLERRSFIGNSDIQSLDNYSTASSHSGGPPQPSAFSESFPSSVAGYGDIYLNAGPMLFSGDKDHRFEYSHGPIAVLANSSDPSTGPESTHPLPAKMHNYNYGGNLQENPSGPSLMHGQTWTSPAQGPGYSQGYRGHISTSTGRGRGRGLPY

[13] = biological target: Insulin receptor (Homo sapiens) (UniProt P06213); conditions: Compound concentration 1000.0 nM
[14] = biological target: Phosphatidylinositol 4,5-bisphosphate 3-kinase catalytic subunit delta isoform (Homo sapiens) (UniProt O00329); conditions: Compound concentration 1000.0 nM
[15] = biological target: TGF-beta receptor type-2 (Homo sapiens) (UniProt P37173); conditions: Compound concentration 1000.0 nM
[16] = biological target: Serine/threonine-protein kinase B-raf (Homo sapiens) (UniProt P15056); conditions: Compound concentration 1000.0 nM
[17] = biological target: Activated CDC42 kinase 1 (Homo sapiens) (UniProt Q07912); conditions: Compound concentration 1000.0 nM
[18] = biological target: Ribosomal protein S6 kinase alpha-5 (Homo sapiens) (UniProt O75582); conditions: Compound concentration 1000.0 nM
Chain of Ribosomal protein S6 kinase alpha-5 (Homo sapiens) (O75582 whole entry, looked up): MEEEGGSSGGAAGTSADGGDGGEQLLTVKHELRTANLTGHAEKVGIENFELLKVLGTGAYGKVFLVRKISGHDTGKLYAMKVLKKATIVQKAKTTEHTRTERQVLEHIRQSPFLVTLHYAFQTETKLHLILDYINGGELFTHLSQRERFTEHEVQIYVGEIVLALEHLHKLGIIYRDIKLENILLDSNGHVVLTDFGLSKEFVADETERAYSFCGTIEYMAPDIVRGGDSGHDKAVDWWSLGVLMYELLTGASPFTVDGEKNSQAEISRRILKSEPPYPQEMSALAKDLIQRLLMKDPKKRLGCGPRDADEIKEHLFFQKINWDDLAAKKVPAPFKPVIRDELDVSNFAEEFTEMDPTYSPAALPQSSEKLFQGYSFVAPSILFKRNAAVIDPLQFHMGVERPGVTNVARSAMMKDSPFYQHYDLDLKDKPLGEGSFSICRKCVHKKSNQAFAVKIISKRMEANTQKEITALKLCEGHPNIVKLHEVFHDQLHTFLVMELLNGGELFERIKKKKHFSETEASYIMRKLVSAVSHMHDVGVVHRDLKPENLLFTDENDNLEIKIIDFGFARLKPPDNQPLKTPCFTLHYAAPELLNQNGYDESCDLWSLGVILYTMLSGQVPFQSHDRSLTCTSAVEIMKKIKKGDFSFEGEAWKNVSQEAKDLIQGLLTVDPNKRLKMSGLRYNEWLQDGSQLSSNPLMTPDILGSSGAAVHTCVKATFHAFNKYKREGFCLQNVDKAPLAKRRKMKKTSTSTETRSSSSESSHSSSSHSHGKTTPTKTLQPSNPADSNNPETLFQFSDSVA

[19] = biological target: Insulin-like growth factor 1 receptor (Homo sapiens) (UniProt P08069); conditions: Compound concentration 1000.0 nM
[20] = biological target: Insulin receptor-related protein (Homo sapiens) (UniProt P14616); conditions: Compound concentration 1000.0 nM
[21] = biological target: Serine/threonine-protein kinase ULK3 (Homo sapiens) (UniProt Q6PHR2); conditions: Compound concentration 1000.0 nM
[22] = biological target: 5-hydroxytryptamine receptor 3A (Homo sapiens) (UniProt P46098); conditions: Compound concentration 10.0 uM
[23] = biological target: Calcium/calmodulin-dependent protein kinase type II subunit beta (Homo sapiens) (UniProt Q13554); conditions: Compound concentration 1000.0 nM
[24] = biological target: Serine/threonine-protein kinase DCLK1 (Homo sapiens) (UniProt O15075); conditions: Compound concentration 1000.0 nM
[25] = tested on: Tyrosine-protein kinase ABL1 (Homo sapiens), P00519 [Q252H]; conditions: Compound concentration 1000.0 nM
[26] = biological target: Myosin light chain kinase 2, skeletal/cardiac muscle (Homo sapiens) (UniProt Q9H1R3); conditions: Compound concentration 1000.0 nM
Chain of Myosin light chain kinase 2, skeletal/cardiac muscle (Homo sapiens) (Q9H1R3 whole entry): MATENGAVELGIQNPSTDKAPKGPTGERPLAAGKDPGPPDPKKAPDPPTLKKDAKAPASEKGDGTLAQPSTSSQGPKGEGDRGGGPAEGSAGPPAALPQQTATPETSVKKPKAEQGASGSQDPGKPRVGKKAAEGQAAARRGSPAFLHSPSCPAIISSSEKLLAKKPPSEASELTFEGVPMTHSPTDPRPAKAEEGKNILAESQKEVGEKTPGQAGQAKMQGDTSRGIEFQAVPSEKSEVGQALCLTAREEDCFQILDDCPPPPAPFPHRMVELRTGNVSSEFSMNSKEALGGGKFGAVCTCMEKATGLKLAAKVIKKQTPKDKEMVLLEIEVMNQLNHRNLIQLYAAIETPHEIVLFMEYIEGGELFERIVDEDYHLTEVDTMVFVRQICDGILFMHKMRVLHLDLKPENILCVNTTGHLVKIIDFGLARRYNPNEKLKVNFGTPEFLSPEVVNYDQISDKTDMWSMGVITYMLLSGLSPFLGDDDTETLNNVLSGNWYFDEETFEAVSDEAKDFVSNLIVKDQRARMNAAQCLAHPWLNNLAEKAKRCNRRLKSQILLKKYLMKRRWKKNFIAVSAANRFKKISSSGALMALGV

[27] = biological target: Serine/threonine-protein kinase PknB (Mycobacterium tuberculosis) (UniProt P9WI81); conditions: Compound concentration 1000.0 nM
[28] = biological target: Ribosomal protein S6 kinase alpha-3 (Homo sapiens) (UniProt P51812); conditions: Compound concentration 1000.0 nM
[29] = biological target: Serine/threonine-protein kinase 38 (Homo sapiens) (UniProt Q15208); conditions: Compound concentration 1000.0 nM
[30] = biological target: Serine/threonine-protein kinase MARK1 (Homo sapiens) (UniProt Q9P0L2); conditions: Compound concentration 1000.0 nM
[31] = biological target: Muscle, skeletal receptor tyrosine-protein kinase (Homo sapiens) (UniProt O15146); conditions: Compound concentration 1000.0 nM
Chain of Muscle, skeletal receptor tyrosine-protein kinase (Homo sapiens) (O15146 whole entry): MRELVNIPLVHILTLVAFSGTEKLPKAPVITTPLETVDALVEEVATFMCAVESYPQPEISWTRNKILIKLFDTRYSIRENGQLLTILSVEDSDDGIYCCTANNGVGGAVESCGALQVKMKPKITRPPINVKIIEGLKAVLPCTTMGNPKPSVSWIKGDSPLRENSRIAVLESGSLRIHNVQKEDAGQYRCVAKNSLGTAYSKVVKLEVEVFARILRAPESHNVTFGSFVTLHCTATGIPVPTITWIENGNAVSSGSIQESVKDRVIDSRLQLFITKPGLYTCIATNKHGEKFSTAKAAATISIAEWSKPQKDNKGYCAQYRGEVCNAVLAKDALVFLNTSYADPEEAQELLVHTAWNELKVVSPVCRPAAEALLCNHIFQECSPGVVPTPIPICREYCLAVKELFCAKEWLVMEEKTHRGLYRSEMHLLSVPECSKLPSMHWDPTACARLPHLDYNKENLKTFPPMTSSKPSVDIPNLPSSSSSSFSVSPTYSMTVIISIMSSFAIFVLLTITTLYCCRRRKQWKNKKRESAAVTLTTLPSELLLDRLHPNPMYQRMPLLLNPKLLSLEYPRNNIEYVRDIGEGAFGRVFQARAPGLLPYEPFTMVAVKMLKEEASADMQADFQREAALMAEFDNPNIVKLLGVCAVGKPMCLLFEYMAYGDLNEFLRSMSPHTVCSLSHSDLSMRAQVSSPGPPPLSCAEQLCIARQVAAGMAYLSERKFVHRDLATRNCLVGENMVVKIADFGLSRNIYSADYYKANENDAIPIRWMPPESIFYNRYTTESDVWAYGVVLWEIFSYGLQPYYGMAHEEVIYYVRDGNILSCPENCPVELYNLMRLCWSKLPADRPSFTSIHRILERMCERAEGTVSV

[32] = biological target: Serine/threonine-protein kinase Nek2 (Homo sapiens) (UniProt P51955); conditions: Compound concentration 1000.0 nM
[33] = biological target: Ribosomal protein S6 kinase alpha-1 (Homo sapiens) (UniProt Q15418); conditions: Compound concentration 1000.0 nM
[34] = biological target: Dual serine/threonine and tyrosine protein kinase (Homo sapiens) (UniProt Q6XUX3); conditions: Compound concentration 1000.0 nM
[35] = biological target: Serine/threonine-protein kinase tousled-like 1 (Homo sapiens) (UniProt Q9UKI8); conditions: Compound concentration 1000.0 nM
[36] = tested on: Tyrosine-protein kinase ABL1 (Homo sapiens), P00519 [M351T]; conditions: Compound concentration 1000.0 nM
[37] = biological target: Mitogen-activated protein kinase kinase kinase kinase 2 (Homo sapiens) (UniProt Q12851); conditions: Compound concentration 1000.0 nM
[38] = biological target: SRSF protein kinase 2 (Homo sapiens) (UniProt P78362); conditions: Compound concentration 1000.0 nM
[39] = biological target: Misshapen-like kinase 1 (Homo sapiens) (UniProt Q8N4C8); conditions: Compound concentration 1000.0 nM
[40] = biological target: Serine/threonine-protein kinase TAO2 (Homo sapiens) (UniProt Q9UL54); conditions: Compound concentration 1000.0 nM
[41] = biological target: Mitogen-activated protein kinase kinase kinase kinase 4 (Homo sapiens) (UniProt O95819); conditions: Compound concentration 1000.0 nM
[42] = biological target: Myosin light chain kinase family member 4 (Homo sapiens) (UniProt Q86YV6); conditions: Compound concentration 1000.0 nM
[43] = tested on: Epidermal growth factor receptor (Homo sapiens), P00533 [UNDEFINED MUTATION]; conditions: Compound concentration 1000.0 nM
[44] = biological target: Ephrin type-A receptor 2 (Homo sapiens) (UniProt P29317); conditions: Compound concentration 1000.0 nM
[45] = tested on: Phosphatidylinositol 4,5-bisphosphate 3-kinase catalytic subunit alpha isoform (Homo sapiens), P42336 [Q546K]; conditions: Compound concentration 1000.0 nM

Chain of TGF-beta receptor type-1 (Homo sapiens) (P36897 whole entry): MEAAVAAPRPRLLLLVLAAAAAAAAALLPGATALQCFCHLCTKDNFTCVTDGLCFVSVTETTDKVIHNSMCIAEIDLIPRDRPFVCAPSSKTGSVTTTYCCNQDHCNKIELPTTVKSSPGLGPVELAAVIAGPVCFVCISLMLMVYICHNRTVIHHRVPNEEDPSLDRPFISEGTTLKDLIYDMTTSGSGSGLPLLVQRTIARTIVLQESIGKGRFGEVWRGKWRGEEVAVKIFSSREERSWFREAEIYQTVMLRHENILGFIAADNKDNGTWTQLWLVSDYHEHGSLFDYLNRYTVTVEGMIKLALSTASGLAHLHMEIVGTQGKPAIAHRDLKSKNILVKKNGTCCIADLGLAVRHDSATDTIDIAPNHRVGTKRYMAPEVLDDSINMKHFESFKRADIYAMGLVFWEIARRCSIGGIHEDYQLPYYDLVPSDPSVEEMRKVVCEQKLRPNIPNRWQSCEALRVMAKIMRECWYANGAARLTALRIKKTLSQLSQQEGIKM

CCC(=O)N[C@@H]1CC[C@H](C(=O)N(C)c2ccc(-c3nc4ccccc4o3)cc2)C1 [BI 99990]
inactive: residual activity [1] 92% | residual activity [2] 100% | residual activity [3] 95% | residual activity [4] 82% | residual activity [5] 100% | residual activity [6] 100% | residual activity [7] 82% | residual activity [8] 95% | residual activity [9] 100% | residual activity [10] 100% | residual activity [11] 100% | residual activity [12] 100% | residual activity [13] 93% | residual activity [14] 100% | residual activity [15] 100% | residual activity [16] 96% | residual activity [17] 100% | residual activity [18] 97% | residual activity [19] 100% | residual activity [20] 100% | residual activity [21] 66% | inhibition [22] -9.11% | residual activity [23] 100% | residual activity [24] 88% | residual activity [25] 87% | residual activity [26] 79% | residual activity [27] 78% | residual activity [28] 91% | residual activity [29] 80% | residual activity [30] 86% | residual activity [31] 100% | residual activity [32] 100% | residual activity [33] 100% | residual activity [34] 93% | residual activity [35] 100% | residual activity [36] 100% | residual activity [37] 100% | residual activity [38] 100% | residual activity [39] 96% | residual activity [40] 89% | residual activity [41] 100% | residual activity [42] 100% | residual activity [43] 100% | residual activity [44] 94% | residual activity [45] 100%

CCC(=O)N[C@H]1CC[C@@H](C(=O)N(C)c2ccc(-c3nc4ccccc4o3)cc2)C1 [BI 99179]
inactive: residual activity [1] 100% | residual activity [2] 87% | residual activity [3] 100% | residual activity [4] 100% | residual activity [5] 93% | residual activity [6] 87% | residual activity [7] 82% | residual activity [8] 99% | residual activity [9] 80% | residual activity [10] 99% | residual activity [11] 83% | residual activity [12] 100% | residual activity [13] 91% | residual activity [14] 100% | residual activity [15] 89% | residual activity [16] 100% | residual activity [17] 84% | residual activity [18] 68% | residual activity [19] 100% | residual activity [20] 100% | residual activity [21] 67% | inhibition [22] -1.4% | residual activity [23] 94% | residual activity [24] 100% | residual activity [25] 78% | residual activity [26] 85% | residual activity [27] 86% | residual activity [28] 87% | residual activity [29] 77% | residual activity [30] 100% | residual activity [31] 100% | residual activity [32] 100% | residual activity [33] 100% | residual activity [34] 87% | residual activity [35] 84% | residual activity [36] 94% | residual activity [37] 96% | residual activity [38] 61% | residual activity [39] 89% | residual activity [40] 76% | residual activity [41] 91% | residual activity [42] 100% | residual activity [43] 97% | residual activity [44] 100% | residual activity [45] 91%
